Seven compounds from patent US9346761B2, “Arginine methyltransferase inhibitors and uses thereof” (Epizyme, Inc., priority 2013, dated 2016) can be followed below.

The target in the experiment is T1, Human CARM1 (PRMT4) (Homo sapiens, UniProt Q86X55).
T1 construct: Flag-CARM1-His was eluted with 200 ug/ml FLAG peptide in buffer A; made in house; host or cells: HEK 293F cells (BacMam virus, pFastBacMam)
T1 sequence (Q86X55 with tags, fused parts or gaps isoform Q86X55-1): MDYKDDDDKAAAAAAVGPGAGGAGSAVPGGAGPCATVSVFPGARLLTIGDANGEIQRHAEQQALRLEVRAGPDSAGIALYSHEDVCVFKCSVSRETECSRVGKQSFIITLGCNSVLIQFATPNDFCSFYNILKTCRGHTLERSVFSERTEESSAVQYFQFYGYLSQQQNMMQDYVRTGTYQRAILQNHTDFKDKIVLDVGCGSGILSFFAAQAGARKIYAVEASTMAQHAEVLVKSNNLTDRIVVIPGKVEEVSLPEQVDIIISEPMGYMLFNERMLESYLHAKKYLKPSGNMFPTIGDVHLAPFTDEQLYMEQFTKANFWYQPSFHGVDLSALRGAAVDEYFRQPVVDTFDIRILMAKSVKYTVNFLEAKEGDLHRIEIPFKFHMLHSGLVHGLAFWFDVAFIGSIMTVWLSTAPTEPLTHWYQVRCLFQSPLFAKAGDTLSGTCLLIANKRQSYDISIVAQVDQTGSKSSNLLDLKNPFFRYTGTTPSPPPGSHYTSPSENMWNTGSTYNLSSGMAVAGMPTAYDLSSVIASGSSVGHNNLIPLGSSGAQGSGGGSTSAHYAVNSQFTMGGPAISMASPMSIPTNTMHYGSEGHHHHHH
Briefly: CARM1 biochemical assay (3H-SAM Flashplate, peptide substrate). The source says: General Materials. S-adenosylmethionine (SAM), S-adenosylhomocysteine (SAH), bicine, Tween20, dimethylsulfoxide (DMSO), bovine skin gelatin (BSG), sodium butyrate and Tris(2-carboxyethyl)phosphine hydrochloride solution (TCEP) were purchased from Sigma-Aldrich at the highest level of purity possible. ^3H-SAM was purchase from American Radiolabeled Chemicals with a specific activity of 80 Ci/mmol. 384-well streptavidin Flashplates were purchased from PerkinElmer.
Substrates. Peptide representative of human histone H3 residues 16-30 was synthesized with an N-terminal linker-affinity tag motif and a C-terminal amide cap by 21st Century Biochemicals.
Protein Expression. Recombinant baculovirus were generated according to Bac-to-Bac kit instructions (Life Technologies). […] Infections were carried out at 37° C. for 48 hours, harvested by centrifugation, and stored at −80° C. for purification.
Protein Purification. […] Column was washed with 500 mM NaCl in buffer A and Flag-CARM1-His was eluted with 200 ug/ml FLAG peptide in buffer A. Pooled fractions were dialyzed in 20 mM Tris, 150 mM NaCl, 5% glycerol and 1 mM DTT, pH 7.8.
General Procedure for CARM1 Enzyme Assays on Peptide Substrates. The assays were all performed in a buffer consisting of 20 mM Bicine (pH=7.6), 1 mM TCEP, 0.005% BSG, and 0.002% Tween 20, prepared on the day of use. […] DMSO (1 ul) was added to Columns 11, 12, 23, 24, rows A-H for the maximum signal control and 1 ul of SAH, a known product and inhibitor of CARM1, was added to columns 11, 12, 23, 24, rows I-P for the minimum signal control. A cocktail (40 ul) containing the CARM1 enzyme was added by Multidrop Combi (Thermo-Fisher). The compounds were allowed to incubate with CARM1 for 30 min at room temperature, then a cocktail (10 ul) containing ^3H-SAM and peptide was added to initiate the reaction (final volume=51 ul). […] The assays were stopped by the addition of non-radiolabeled SAM (10 ul) to a final concentration of 300 uM, which dilutes the ^3H-SAM to a level where its incorporation into the peptide substrate is no longer detectable. 50 ul of the reaction in the 384-well polypropylene plate was then transferred to a 384-well Flashplate and the biotinylated peptides were allowed to bind to the streptavidin surface for at least 1 hour before being washed once with 0.1% Tween20 in a Biotek ELx405 plate washer. The plates were then read in a PerkinElmer TopCount plate reader to measure the quantity of ^3H-labeled peptide bound to the Flashplate surface, measured as disintegrations per minute (dpm) or alternatively, referred to as counts per minute (cpm).
Where dpm=disintegrations per minute, cmpd=signal in assay well, and min and max are the respective minimum and maximum signal controls.
Where top and bottom are the normally allowed to float, but may be fixed at 100 or 0 respectively in a 3-parameter fit. The Hill Coefficient normally allowed to float but may also be fixed at 1 in a 3-parameter fit. Y is the % inhibition and X is the compound concentration.

As usually defined, the IC50 is the concentration needed to halve the response being measured. `CN(CCN)Cc1c[nH]nc1-c1cc(Cl)ccc1F` [Compound 156] returned an IC50 of 3.01 to 10 µM.

With `COc1ccc(Cl)cc1-c1n[nH]cc1CN(C)CCN` [Compound 157], the IC50 is above 10 µM.

Compound `Cc1ccc(C#N)cc1-c1n[nH]cc1CN(C)CCN` [Compound 158] came in with an IC50 above 10 µM.

Regarding `Cc1ccc(F)cc1-c1n[nH]cc1CN(C)CCN` [Compound 159], the IC50 was above 10 µM.

Regarding `COc1ccc(F)cc1-c1n[nH]cc1CN(C)CCN` [Compound 160], the IC50 was above 10 µM.

With `Cc1ccccc1-c1n[nH]cc1CN(C)CCN` [Compound 161], the IC50 is 3.01 to 10 µM.

On to `Cc1ccc(-c2n[nH]cc2CN(C)CCN)cc1` [Compound 162], for which the IC50 lay in the range of 0.101 to 1 µM.
